Test results taken from US5495032A, “Process for producing 7-(substituted)-8-(substituted-9-[(substituted glycyl)amido]-6-demethyl-6-deoxytetracyclines” (priority 1994, dated 1996).
Counter-ions that a name gives are not always drawn. Like-named read-outs stand apart in the source and are kept apart here.

Key:
Format in all cases: cell-based
E. coli BAJ9003 IMP MUT = experiment: microbe, parasite or virus in culture; settings: 18 hours at 35° C.
E. coli J3272 Tet C = experiment: microbe, parasite or virus in culture
S. aureus IVES 1 983 = experiment: MIC, agar dilution method
S. aureus UBMS 88-4 = experiment: MIC, agar dilution method
[1] = system: S. hemolyticus AVHAH 88-3; experiment: MIC, agar dilution method
S. aureus NEMC 8769 = experiment: MIC, agar dilution method
E. coli ATCC 25922 = experiment: MIC, agar dilution method
[2] = system: Ps. acruginosa ATCC 27853; experiment: MIC, agar dilution method; settings: Ps. acruginosa ATCC 27853, 18 hours at 35° C.
E. coli UBMS 89-1 Tet M = experiment: microbe, parasite or virus in culture; settings: 18 hours at 35° C.
S. aureus IVES 2943 = experiment: MIC, agar dilution method
E. coli J3272 Tet D = experiment: microbe, parasite or virus in culture
S. aureus SMITH (MP) = experiment: MIC, agar dilution method; settings: 18 hours at 35° C.
E. coli PRP1 Tet A = experiment: microbe, parasite or virus in culture; settings: 18 hours at 35° C.
E. faecalis ATCC 29212 = experiment: MIC, agar dilution method
S. aureus ROSE (MP) = experiment: MIC, agar dilution method; settings: 18 hours at 35° C.
[3] = system: S. aureus UBMS 88-7 Tet K; experiment: microbe, parasite or virus in culture; settings: 18 hours at 35° C.
E. coli UBMS 88-1 Tet B = experiment: microbe, parasite or virus in culture; settings: 18 hours at 35° C.
E. coli UBMS 90-5 sens = experiment: MIC, agar dilution method; settings: 18 hours at 35° C.
[4] = system: X. maltophilia NEMC 87210; experiment: MIC, agar dilution method
[5] = system: S. aureus UBMS 88-5 Tet M; experiment: microbe, parasite or virus in culture
S. aureus ATCC 29213 = experiment: MIC, agar dilution method; settings: 18 hours at 35° C.
[6] = system: E. coli UBMS 89-2 Tet sens; experiment: MIC, agar dilution method; settings: 18 hours at 35° C.
[7] = system: E. coli MC 4100 Tet sens.; experiment: MIC, agar dilution method; settings: 18 hours at 35° C.
S. mariescens FPOR 8733 = experiment: MIC, agar dilution method; settings: 18 hours at 35° C.
[8] = system: E. coli MC 4100 TNIOC Tet B; experiment: microbe, parasite or virus in culture; settings: 18 hours at 35° C.
S. aureus UBMS 90-3 = experiment: MIC, agar dilution method
E. coli #311 (MP) = experiment: MIC, agar dilution method; settings: 18 hours at 35° C.
[9] = system: S. aureus UBMS 90-1 Tet M; experiment: microbe, parasite or virus in culture; settings: 18 hours at 35° C.
E. coli J2175 = experiment: MIC, agar dilution method; settings: 18 hours at 35° C.
Enterococcus 12201 = experiment: MIC, agar dilution method; settings: 18 hours at 35° C.
E. coli UBMS 90-4 Tet M = experiment: microbe, parasite or virus in culture; settings: 18 hours at 35° C.
[10] = system: S. aureus UBMS 90-2 Tet M; experiment: microbe, parasite or virus in culture; settings: 18 hours at 35° C.
[11] = Escherichia coli, BAJ9003IMPMUT, 18 h
[12] = Escherichia coli, J3272TETC, 18 h
[13] = Staphylococcus aureus, UBMS884, 18 hours at 35° C., read-out: MIC
[14] = Staphylococcus aureus, NEMC8769, 18 h
[15] = Escherichia coli, ATCC25922, 18 hours at 35° C., read-out: MIC
[16] = Escherichia coli, UBMS891TETM, 18 h
[17] = Escherichia coli, J3272TETD, 18 h
[18] = Escherichia coli, PRP1TETA, 18 h
[19] = Enterococcus faecalis, ATCC29212, 18 hours at 35° C., read-out: MIC
[20] = Staphylococcus aureus, UBMS887TETK, 18 h
[21] = Escherichia coli, UBMS881TETB, 18 h
[22] = Escherichia coli, UBMS905SENS, read-out: MIC
[23] = Staphylococcus aureus, UBMS885TETM, 18 h
[24] = Staphylococcus aureus, ATCC29213, 18 h
[25] = Escherichia coli, UBMS892TETSENS, 18 h, read-out: MIC
[26] = Escherichia coli, read-out: MIC
[27] = Staphylococcus aureus, UBMS903, 18 h
[28] = Staphylococcus aureus, UBMS901TETM, 18 h
[29] = Escherichia coli, UBMS904TETM, 18 h
[30] = Staphylococcus aureus, UBMS902TETM, 18 h

SMILES: CN(C)[C@@H]1C(O)=C(C(N)=O)C(=O)[C@@]2(O)C(O)=C3C(=O)c4c(cc(Cl)c(NC(=O)CN5CCCC5)c4O)CC3CC12 (stereo partly drawn) [E, [7S-(7α,10aα)]-N-[9-(Aminocarbonyl)-3-chloro-7-(dimethylamino)-5,5a,6,6a,7, 10,10a,12-octahydro-1,2,10a,11-tetrahydroxy-10,12-dioxo-2-naphthacenyl]-1-pyrrolidineacetamide dihydrochloride]
- MIC (E. coli BAJ9003 IMP MUT; [11]): 0.12 µg/mL
- MIC (E. coli J3272 Tet C; [12]): 1 µg/mL
- MIC (S. aureus IVES 1 983; Staphylococcus aureus, IVES1983, S. aureus IVES 1 983, 18 hours at 35° C., read-out: MIC): 4 µg/mL
- MIC (S. aureus UBMS 88-4; [13]): 0.25 µg/mL
- MIC ([1]; Streptococcus pyogenes, AVHAH883, 18 h, 18 hours at 35° C.): 2 µg/mL
- MIC (S. aureus NEMC 8769; [14]): 0.25 µg/mL
- MIC (E. coli ATCC 25922; [15]): 0.25 µg/mL
- MIC ([2]; read-out: MIC): 32 µg/mL
- MIC (E. coli UBMS 89-1 Tet M; [16]): 0.25 µg/mL
- MIC (S. aureus IVES 2943; Staphylococcus aureus, IVES2943, S. aureus IVES 2943, 18 hours at 35° C., read-out: MIC): 4 µg/mL
- MIC (E. coli J3272 Tet D; [17]): 0.25 µg/mL
- MIC (S. aureus SMITH (MP); Staphylococcus aureus, 18 h): 0.25 µg/mL
- MIC (E. coli PRP1 Tet A; [18]): 2 µg/mL
- MIC (E. faecalis ATCC 29212; [19]): 0.12 µg/mL
- MIC (S. aureus ROSE (MP); Staphylococcus aureus, 18 h): 8 µg/mL
- MIC [3, 20]: 2 µg/mL
- MIC (E. coli UBMS 88-1 Tet B; [21]): 1 µg/mL
- MIC (E. coli UBMS 90-5 sens; [22]): 1 µg/mL
- MIC ([4]; Stenotrophomonas maltophilia, NEMC87210, 18 h, 18 hours at 35° C.): 1 µg/mL
- MIC [5, 23]: 0.25 µg/mL
- MIC (S. aureus ATCC 29213; [24]): 0.25 µg/mL
- MIC [6, 25]: 1 µg/mL
- MIC [7, 26]: 0.25 µg/mL
- MIC (S. mariescens FPOR 8733; 18 h): 8 µg/mL
- MIC ([8]; Escherichia coli, 18 h): 1 µg/mL
- MIC (S. aureus UBMS 90-3; [27]): 0.12 µg/mL
- MIC (E. coli #311 (MP); [26]): 0.25 µg/mL
- MIC [9, 28]: 0.25 µg/mL
- MIC (E. coli J2175; [26]): 1 µg/mL
- MIC (Enterococcus 12201; Enterococcus, 12201, 18 h): 0.25 µg/mL
- MIC (E. coli UBMS 90-4 Tet M; [29]): 1 µg/mL
- MIC [10, 30]: 0.25 µg/mL

SMILES: CCCNCC(=O)Nc1c(Cl)cc2c(c1O)C(=O)C1=C(O)[C@]3(O)C(=O)C(C(N)=O)=C(O)[C@@H](N(C)C)C3CC1C2 (stereo partly drawn) [F, [4S-(4α,12aα)]-8-Chloro-4-(dimethylamino)-1,4,4a,5,5a,6,11,12a-octahydro-3,10,12,12a-tetrahydroxy-1,11-dioxo-9-[[(propylamino)acetyl]amino]-2-naphthacenecarboxamide dihydrochloride]
- MIC (E. coli BAJ9003 IMP MUT; [11]): 0.12 µg/mL
- MIC (E. coli J3272 Tet C; [12]): 1 µg/mL
- MIC (S. aureus IVES 1 983; Staphylococcus aureus, IVES1983, 18 h): 8 µg/mL
- MIC (S. aureus UBMS 88-4; [13]): 0.25 µg/mL
- MIC ([1]; Streptococcus pyogenes, AVHAH883, 18 hours at 35° C., read-out: MIC): 4 µg/mL
- MIC (S. aureus NEMC 8769; [14]): 0.25 µg/mL
- MIC (E. coli ATCC 25922; [15]): 0.5 µg/mL
- MIC ([2]; read-out: MIC): 32 µg/mL
- MIC (E. coli UBMS 89-1 Tet M; [16]): 0.5 µg/mL
- MIC (S. aureus IVES 2943; Staphylococcus aureus, IVES2943, 18 h): 16 µg/mL
- MIC (E. coli J3272 Tet D; [17]): 0.25 µg/mL
- MIC (S. aureus SMITH (MP); Staphylococcus aureus, 18 h): 0.25 µg/mL
- MIC (E. coli PRP1 Tet A; [18]): 4 µg/mL
- MIC (E. faecalis ATCC 29212; [19]): 0.12 µg/mL
- MIC (S. aureus ROSE (MP); Staphylococcus aureus, 18 h): 16 µg/mL
- MIC [3, 20]: 8 µg/mL
- MIC (E. coli UBMS 88-1 Tet B; [21]): 0.5 µg/mL
- MIC (E. coli UBMS 90-5 sens; [22]): 0.5 µg/mL
- MIC ([4]; Stenotrophomonas maltophilia, NEMC87210, 18 hours at 35° C., read-out: MIC): 2 µg/mL
- MIC [5, 23]: 0.5 µg/mL
- MIC (S. aureus ATCC 29213; [24]): 0.25 µg/mL
- MIC [6, 25]: 1 µg/mL
- MIC [7, 26]: 0.12 µg/mL
- MIC (S. mariescens FPOR 8733; read-out: MIC): 8 µg/mL
- MIC ([8]; Escherichia coli, 18 h): 0.5 µg/mL
- MIC (S. aureus UBMS 90-3; [27]): 0.5 µg/mL
- MIC (E. coli #311 (MP); [26]): 0.5 µg/mL
- MIC [9, 28]: 0.5 µg/mL
- MIC (E. coli J2175; [26]): 1 µg/mL
- MIC (Enterococcus 12201; Enterococcus, 12201, 18 h): 0.25 µg/mL
- MIC (E. coli UBMS 90-4 Tet M; [29]): 0.5 µg/mL
- MIC [10, 30]: 0.25 µg/mL

SMILES: CN(C)C1C(O)=C(C(N)=O)C(=O)C2(O)C(O)=C3C(=O)c4c(cc(Cl)c(NC(=O)CNCC5CC5)c4O)CC3CC12.Cl.Cl (stereo not drawn) [G, [4S-(4α,12aα)]-8-Chloro-9-[[(cyclopropylmethylamino)acetyl]amino]-4-(dimethylamino)-1,4,4a,5,5a,6,11,12a-octahydro-3,10,12,12a-tetrahydroxy-1,11-dioxo-2-naphthacenecarboxamide dihydrochloride]
- MIC (E. coli BAJ9003 IMP MUT): 0.12 µg/mL
- MIC (E. coli J3272 Tet C; E. coli J3272 Tet C, 18 hours at 35° C.): 1 µg/mL
- MIC (S. aureus IVES 1 983; S. aureus IVES 1 983, 18 hours at 35° C.): 16 µg/mL
- MIC (S. aureus UBMS 88-4; 18 hours at 35° C.): 0.5 µg/mL
- MIC ([1]; 18 hours at 35° C.): 8 µg/mL
- MIC (S. aureus NEMC 8769; S. aureus NEMC 8769, 18 hours at 35° C.): 0.5 µg/mL
- MIC (E. coli ATCC 25922; 18 hours at 35° C.): 1 µg/mL
- MIC [2]: 32 µg/mL
- MIC (E. coli UBMS 89-1 Tet M): 0.5 µg/mL
- MIC (S. aureus IVES 2943; S. aureus IVES 2943, 18 hours at 35° C.): 16 µg/mL
- MIC (E. coli J3272 Tet D; E. coli J3272 Tet D, 18 hours at 35° C.): 1 µg/mL
- MIC (S. aureus SMITH (MP)): 0.5 µg/mL
- MIC (E. coli PRP1 Tet A): 4 µg/mL
- MIC (E. faecalis ATCC 29212; 18 hours at 35° C.): 0.25 µg/mL
- MIC (S. aureus ROSE (MP)): 32 µg/mL
- MIC [3]: 8 µg/mL
- MIC (E. coli UBMS 88-1 Tet B): 1 µg/mL
- MIC (E. coli UBMS 90-5 sens): 1 µg/mL
- MIC ([4]; 18 hours at 35° C.): 4 µg/mL
- MIC ([5]; S. aureus UBMS 88-5 Tet M, 18 hours at 35° C.): 0.5 µg/mL
- MIC (S. aureus ATCC 29213): 0.25 µg/mL
- MIC [6]: 1 µg/mL
- MIC [7]: 0.25 µg/mL
- MIC (S. mariescens FPOR 8733): 8 µg/mL
- MIC [8]: 1 µg/mL
- MIC (S. aureus UBMS 90-3; S. aureus UBMS 90-3, 18 hours at 35° C.): 0.12 µg/mL
- MIC (E. coli #311 (MP)): 1 µg/mL
- MIC [9]: 2 µg/mL
- MIC (E. coli J2175): 1 µg/mL
- MIC (Enterococcus 12201): 0.25 µg/mL
- MIC (E. coli UBMS 90-4 Tet M): 1 µg/mL
- MIC [10]: 0.5 µg/mL
